Converted amounts (≈) assume the structure as drawn. Like-named read-outs stand apart in the source and are kept apart here. Marks after values point to notes of the source that are not given here.
Experiments:
[1] = tested on: MCF-7 cell line; assay: MTT cell viability, MCF-7 cancer cell line; assay type: cell-based; conditions: for IC50: Homo sapiens, MCF7, MTT, 48 h, read-out: IC50 values Carbazole Derivatives Effect on MCF-7 Cell Line
Experimental: MCF-7 cancer cell lines were cultured at Dulbecco’s Modified Eagle Medium High Glucose (DMEM) (EuroClone, Via Figino, Italy); fetal bovine serum (FBS) and MTT (3-(4,5-Dimethylthiazol-2-yl)-2,5-Diphenyl Tetrazolium Bromide) were provided by Sigma-Aldrich (Darmstadt, Germany); ApopNexin Annexin-V-FITC with PI Apoptosis Kit was obtained from Merck (Darmstadt, Germany); Total RNA Isolation Kit was provided by Analytic Jena (Jena, Germany), SensiFast cDNA Synthesis Kit was provided by Meridian Bioscience (Cincinati, USA), SybrGreen Master Mix was obtained from EuroClone (Via Figino, Italy).
(§1) Cells (MCF-7 and L929) were incubated in 75 cm^2 sterile flasks with 10% FBS, 100 U/mL penicillin, and 100 µg/mL streptomycin. The cells were grown at 37 ^○C in 5% CO2, and MTT was used to screen the viability of the cells. Cells were seeded at a density of 10^4 cells per well. The cells were then cultured for 24 h in 100 µl of DMEM complete medium. After pretreatment with different concentrations of the compounds for 48 h, 10 µl of 5 mg/mL MTT solution was added to each well and incubated for 4 h at 37 ^○C, and 100 µl of DMSO was used in each well to dissolve the blue formazan crystals. Then, the absorbance was measured at 570 nm. The cell viability percentages of compound 4o against MCF-7 cancer cell lines and L929 normal cell lines were presented in Fig. 2 in comparison with doxorubicin anticancer agent.

[2] = DPPH radical scavenging assay; assay type: biochemical; conditions: 30 min, 517 nm
Experimental: To estimate the Carbazole derivatives' antioxidant potential, a solution of each compound (1 mM/mL) in methanol was serially diluted with methanol to obtain a concentration of 1, 2, 5, 10, 20, 50, and 100 µM/mL. Then, DPPH (2,2-diphenyl-1-picrylhydrazyl) reagent (Sigma, USA) was dissolved in 0.002% w/v methanol and mixed with the previously prepared working concentrations in a 1:1 ratio. The same procedures were repeated for Trolox (Sigma-Aldrich, Denmark), which was used as a positive control. All of the solutions were kept in the dark chamber for 30 min at an ordinary temperature. Then, their absorbance values were measured at a wavelength of 517 nm utilizing a UV–visible spectrophotometer. The DPPH inhibition potentials by Carbazole derivatives and Trolox were determined employing the following equation: DPPH inhibition(\%)=abs(blank)-abs(sample)/abs(blank)∗100\% where absblank is the blank absorbance and abssample is the absorbance of the samples [58]. The antioxidant half-maximal inhibitory concentration (IC50) of the synthesized carbazole derivatives and Trolox were assessed by using an online tool “Quest Graph™ IC50 Calculator.” AAT Bioquest, Inc., 25 May. 2023, https://www.aatbio.com/tools/ic50-calculator.

[3] = tested on: MCF-7 cells; assay: Annexin-V-FITC/PI apoptosis assay by flow cytometry; assay type: cell-based; conditions: MCF-7, sum of pre-apoptotic, post-apoptotic and necrosis
Experimental: FITC Annexin-V apoptosis detection kit with PI, ApopNexinTM FITC (APT750, Merk, Germany) was used for apoptosis assay. MCF-7 cells were seeded into a 6-well plate (1 × 10^6 cells per well). Then, the cells were incubated with the compounds at the cytotoxic concentration by employing a cell viability assay. Apoptotic cells were cultured with the compounds, the medium was removed after incubation, and the cells were washed twice with 5 mL of pre-chilled phosphate-buffered saline. Cells washed with PBS were lifted with Trypsin–EDTA and centrifuged at 400 rpm for 5 min. The resulting cells were each treated with 1 mL of cold 1-X Binding Buffer (Sigma Aldrich, USA). Then, 200 μL of the mixture was taken and placed in a flow cytometry tube, and the other part containing cells was kept on ice. First, 3 µl of ApopNexinTM FITC and 2 µl of 100X propidium iodide (PI) (P4170, Sigma Aldrich, USA) were added to the solution taken into the sample tube and mixed. The resulting mixture was incubated for 15 min in the dark at room temperature. At the end of the incubation, the samples were measured in flow cytometry (Beckman Coulter Cytoflex) and data were obtained.

[4] = tested on: L929 normal cell lines; assay: MTT cell viability, L929 normal cell line; assay type: cell-based; conditions: Mus musculus, 48 h
Experimental: as §1

[5] = tested on: Staphylococcus aureus; assay: MIC and MBC test, S. aureus; assay type: cell-based
Experimental: (§2) Using Muller Hinton agar medium, the antibacterial activity was evaluated by using 24 h cultures of Escherichia coli, Staphylococcus aureus, and Candida albicans. E. coli and S. aureus were incubated in 1% Mueller Hinton Broth (MHB) liquid medium at 37 °C for 24 h; C. albicans was incubated in Sabouraud Dextrose Broth (SDB) at 30 °C for 48 h. MIC (Minimum Inhibitory Concentration) and MBC (Minimum Bactericidal Concentration) tests were performed to determine antimicrobial activity. This stage was carried out in a sterile cabinet.
(§3) The density of microorganisms in fresh cultures was adjusted according to the MacFarland 0.5 scale. For that, the microorganisms were centrifuged at 4000 rpm for 20 min. The supernatant was poured off, and the pellet was washed with 1 mL of 0.9% NaCl solution (physiological saline). The centrifugation was then repeated. The pellet was dissolved again with saline solution and adjusted to 0.5 MacFarland. In the experiment performed in a sterile 96-well plate, compound 4o was diluted ½ with DMSO to prepare a stock solution. In the first, 100 µl of medium and 100 µl of compound 4o as initial dilutions. Dilution was performed seven times at a ratio of ½. Then, 5 µl of fresh microorganism cultures prepared as MacFarland 0.5 were inoculated. The control group was prepared as 100 µl medium, 100 µl distilled water, and 5 µl microorganisms. The plates were incubated at 37 °C and 30 °C for 24 h.
(§4) After incubation, 10 µl of the sample was taken, dropped onto the respective media, and incubated for 24 h at appropriate temperatures to clearly distinguish the residues left by the compound 4o and the growth of microorganisms. Mueller Hinton Agar (MHA) was used for E. coli and S. aureus, and Potato Dextrose Agar (PDA) was used for C. albicans. After incubation, MIC and MBC values were determined. The first well with a significant decrease in growth was considered as MIC, and the first well with no growth was considered as MBC [59, 60].

[6] = tested on: Escherichia coli; assay: MIC and MBC test, E. coli; assay type: cell-based
Experimental: as §2, §3, §4

[7] = set-up: method as in PMID 37328860; conditions: previous preliminary work; read-out: Antioxidant IC50 against DPPH; cited from earlier work
[8] = tested on: Candida albicans; assay: MIC and MBC test, C. albicans; assay type: cell-based
Experimental: as §2, §3, §4

Row | melting point | IC50 [1] | IC50 [2] | SMILES | further results
1 | 235 to 237 °C | > 20 µM | 52.1 ± 2.42 µM | O=C(Cn1c2ccccc2c2ccccc21)NNC(=S)Nc1ccccc1 [Compound 4a, 2-(2-(9H-carbazol-9-yl)acetyl)-N-phenylhydrazine-1-carbothioamide] | –
2 | 218 to 220 °C | > 20 µM | 5.15 ± 1.02 µM | COc1cccc(NC(=S)NNC(=O)Cn2c3ccccc3c3ccccc32)c1 [Compound 4b, 2-(2-(9H-carbazol-9-yl)acetyl)-N-(3-methoxyphenyl)hydrazine-1-carbothioamide] | –
3 | 189 to 191 °C | > 20 µM | 8.99 ± 2.17 µM | O=C(Cn1c2ccccc2c2ccccc21)NNC(=S)NCCCN1CCOCC1 [Compound 4c, 2-(2-(9H-carbazol-9-yl)acetyl)-N-(3-morpholinopropyl)hydrazine-1-carbothioamide] | –
4 | 222 to 224 °C | > 20 µM | 29.7 ± 1.77 µM | O=C(Cn1c2ccccc2c2ccccc21)NNC(=S)Nc1cccc2ccccc12 [Compound 4d, 2-(2-(9H-carbazol-9-yl)acetyl)-N-(naphthalen-1-yl)hydrazine-1-carbothioamide] | –
5 | 235 to 237 °C | > 20 µM | 50.8 ± 1.88 µM | O=C(Cn1c2ccccc2c2ccccc21)NNC(=S)Nc1ccc([N+](=O)[O-])cc1 [Compound 4e, 2-(2-(9H-carbazol-9-yl)acetyl)-N-(4-nitrophenyl)hydrazine-1-carbothioamide] | –
6 | 210 to 212 °C | > 20 µM | 3.41 ± 1.05 µM | COc1ccc(NC(=S)NNC(=O)Cn2c3ccccc3c3ccccc32)cc1 [Compound 4f, 2-(2-(9H-carbazol-9-yl)acetyl)-N-(4-methoxyphenyl)hydrazine-1-carbothioamide] | –
7 | 255 to 257 °C | > 20 µM | 4.14 ± 0.75 µM | O=C(Cn1c2ccccc2c2ccccc21)NNC(=S)Nc1ccc(Br)cc1 [Compound 4g, 2-(2-(9H-carbazol-9-yl)acetyl)-N-(4-bromophenyl)hydrazine-1-carbothioamide] | –
8 | 235 to 237 °C | > 20 µM | 0.73 ± 0.54 µM | O=C(Cn1c2ccccc2c2ccccc21)NNC(=S)Nc1ccc(Cl)cc1 [Compound 4h, 2-(2-(9H-carbazol-9-yl)acetyl)-N-(4-chlorophenyl)hydrazine-1-carbothioamide] | –
9 | 177 to 179 °C | > 20 µM | 2.08 ± 0.72 µM | O=C(Cn1c2ccccc2c2ccccc21)NNC(=S)Nc1ccc(C(F)(F)F)cc1 [Compound 4k, 2-(2-(9H-carbazol-9-yl)acetyl)-N-(4-(trifluoromethyl)phenyl)hydrazine-1-carbothioamide] | –
10 | 211 to 213 °C | > 20 µM | 2.37 ± 1.7 µM | O=C(Cn1c2ccccc2c2ccccc21)NNC(=S)NC1CCCCC1 [Compound 4m, 2-(2-(9H-carbazol-9-yl)acetyl)-N-cyclohexylhydrazine-1-carbothioamide] | –
11 | 180 to 182 °C | > 20 µM | 1.52 ± 0.58 µM | Cc1ccc(NC(=S)NNC(=O)Cn2c3ccccc3c3ccccc32)cc1 [Compound 4n, 2-(2-(9H-carbazol-9-yl)acetyl)-N-(p-tolyl)hydrazine-1-carbothioamide] | –
12 | 169 to 171 °C | > 20 µM | 10.2 ± 1.85 µM | O=C(Cn1c2ccccc2c2ccccc21)NNC(=S)NCc1ccccc1 [Compound 4p, 2-(2-(9H-carbazol-9-yl)acetyl)-N-benzylhydrazine-1-carbothioamide] | –
13 | 199 to 201 °C | 4.99 ± 0.42 µM | 19.9 ± 1.55 µM | O=C(Cn1c2ccccc2c2ccccc21)NNC(=S)NC1CC2CCC1C2 (stereo not shown) [Compound 4r, 2-(2-(9H-carbazol-9-yl)acetyl)-N-(bicyclo[2.2.1]heptan-2-yl)hydrazine-1-carbothioamide] | –
14 | 170 to 172 °C | > 20 µM | 3.05 ± 1.75 µM | O=C(Cn1c2ccccc2c2ccccc21)NNC(=S)NCCc1ccccc1 [Compound 4s, 2-(2-(9H-carbazol-9-yl)acetyl)-N-phenethylhydrazine-1-carbothioamide] | –
15 | 186 to 188 °C | > 20 µM | 15.9 ± 2.07 µM | CC(C)NC(=S)NNC(=O)Cn1c2ccccc2c2ccccc21 [Compound 4t, 2-(2-(9H-carbazol-9-yl)acetyl)-N-isopropylhydrazine-1-carbothioamide] | –
16 | 205 to 207 °C | > 20 µM | 0.38 ± 0.05 µM | C=CCNC(=S)NNC(=O)Cn1c2ccccc2c2ccccc21 [Compound 4y, 2-(2-(9H-carbazol-9-yl)acetyl)-N-allylhydrazine-1-carbothioamide] | –
17 | 173 to 175 °C | > 20 µM | 21.6 ± 0.87 µM | CNC(=S)NNC(=O)Cn1c2ccccc2c2ccccc21 [Compound 4z, 2-(2-(9H-carbazol-9-yl)acetyl)-N-methylhydrazine-1-carbothioamide] | –
18 | – | 5.06 ± 0.21 µM | – | COc1cccc2c1C(=O)c1c(O)c3c(c(O)c1C2=O)C[C@@](O)(C(=O)CO)C[C@@H]3O[C@H]1C[C@H](N)[C@H](O)[C@H](C)O1 [Doxorubicin, reference compound] | selective index (SI) ([1]; L929 vs MCF-7): 3.82; total dead cells [3]: 14.50%; IC50 [4]: 19.3 µM
19 | – | – | – | C[C@H]1c2cccc(O)c2C(=O)C2=C(O)[C@]3(O)C(=O)C(C(N)=O)=C(O)[C@@H](N(C)C)[C@@H]3[C@@H](O)[C@@H]21 [Doxycyline, reference compound] | MBC [5]: 63.0^a µM; MBC [6]: 50.9^a µM; MIC [6]: 5.09^a µM
20 | – | – | – | COc1ccc(S(=O)(=O)NNC(=O)Cn2c3ccccc3c3ccccc32)cc1 [St.1] | IC50 [7]: 1.05 µM
21 | – | – | 7.71 ± 1.47 µM | Cc1c(C)c2c(c(C)c1O)CCC(C)(C(=O)O)O2 (stereo not shown) [Trolox, reference compound] | –
22 | – | – | – | OC(Cn1cncn1)(Cn1cncn1)c1ccc(F)cc1F [fluconazole, reference compound] | MBC [8]: 16.3 µM (≈ 4.99 µg/mL)

From PMC11110238, “Synthesis of novel carbazole hydrazine-carbothioamide scaffold as potent antioxidant, anticancer and antimicrobial agents” (BMC Chemistry, 2024)
